Results published in PubChem BioAssay AID1845208 (Molecular Pharmacology Branch, DTP, NCI, 2023).

Test system: NCI-H196 SCLC complex tumor spheroid viability
Experiment: Anticancer human tumor NCI-H196 cell line growth inhibition;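 further: spheroids exposed to compounds for 7 days before readout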;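 on viability, T/C: 100% = DMSO vehicle control wells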
Conditions: for IC50: curve of first compound; for viability, T/C: stronger effect = lower value
Method in brief: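 Complex spheroids of malignant cells with endothelial cells and mesenchymal stem cells; agents alone or combined, from near clinical Cmax (or 10 microM if unknown) down in half-log steps, 0.25% DMSO final.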

COc1cc(C)[nH]c(=O)c1CN1CCc2c(Cl)cc(C(OC)C3COC3)c(Cl)c2C1=O (stereo not given) + Cn1nnc2c(C(N)=O)ncn2c1=O
IC50 (second compound 1 µM): > 10 µM
IC50 (second compound 3.16 µM): > 10 µM
IC50 (second compound 10 µM): > 10 µM
IC50 (second compound 31.6 µM): > 10 µM
IC50 (second compound 100 µM): > 10 µM
viability, T/C (second compound 1 µM, first compound 0.0316 µM): 91.4%
viability, T/C (second compound 1 µM, first compound 0.1 µM): 103%
viability, T/C (second compound 1 µM, first compound 0.316 µM): 89.9%
viability, T/C (second compound 1 µM, first compound 1 µM): 86.8%
viability, T/C (second compound 1 µM, first compound 3.16 µM): 94%
viability, T/C (second compound 1 µM, first compound 10 µM): 92%
viability, T/C (second compound 3.16 µM, first compound 0.0316 µM): 95.2%
viability, T/C (second compound 3.16 µM, first compound 0.1 µM): 98.8%
viability, T/C (second compound 3.16 µM, first compound 0.316 µM): 99.2%
viability, T/C (second compound 3.16 µM, first compound 1 µM): 105%
viability, T/C (second compound 3.16 µM, first compound 3.16 µM): 90.9%
viability, T/C (second compound 3.16 µM, first compound 10 µM): 97.3%
viability, T/C (second compound 10 µM, first compound 0.0316 µM): 106%
viability, T/C (second compound 10 µM, first compound 0.1 µM): 104%
viability, T/C (second compound 10 µM, first compound 0.316 µM): 99.7%
viability, T/C (second compound 10 µM, first compound 1 µM): 103%
viability, T/C (second compound 10 µM, first compound 3.16 µM): 98.2%
viability, T/C (second compound 10 µM, first compound 10 µM): 102%
viability, T/C (second compound 31.6 µM, first compound 0.0316 µM): 104%
viability, T/C (second compound 31.6 µM, first compound 0.1 µM): 107%
viability, T/C (second compound 31.6 µM, first compound 0.316 µM): 101%
viability, T/C (second compound 31.6 µM, first compound 1 µM): 106%
viability, T/C (second compound 31.6 µM, first compound 3.16 µM): 99%
viability, T/C (second compound 31.6 µM, first compound 10 µM): 105%
viability, T/C (second compound 100 µM, first compound 0.0316 µM): 102%
viability, T/C (second compound 100 µM, first compound 0.1 µM): 98.9%
viability, T/C (second compound 100 µM, first compound 0.316 µM): 99.3%
viability, T/C (second compound 100 µM, first compound 1 µM): 87.1%
viability, T/C (second compound 100 µM, first compound 3.16 µM): 96.4%
viability, T/C (second compound 100 µM, first compound 10 µM): 94.7%

Cc1cc(C)c(CNC(=O)c2cc(-c3ccc(CN4CCOCC4)cc3)cc3c2cnn3C2CCCC2)c(=O)[nH]1 + CC[C@@]1(O)C(=O)OCc2c1cc1n(c2=O)Cc2cc3c(CN(C)C)c(O)ccc3nc2-1
IC50 (second compound 0.003 µM): > 10 µM
IC50 (second compound 0.00949 µM): > 10 µM
IC50 (second compound 0.03 µM): > 10 µM
IC50 (second compound 0.0949 µM): > 10 µM
IC50 (second compound 0.3 µM): > 10 µM
viability, T/C (second compound 0.003 µM, first compound 0.0316 µM): 99.4%
viability, T/C (second compound 0.003 µM, first compound 0.1 µM): 94.9%
viability, T/C (second compound 0.003 µM, first compound 0.316 µM): 102%
viability, T/C (second compound 0.003 µM, first compound 1 µM): 95.6%
viability, T/C (second compound 0.003 µM, first compound 3.16 µM): 101%
viability, T/C (second compound 0.003 µM, first compound 10 µM): 104%
viability, T/C (second compound 0.00949 µM, first compound 0.0316 µM): 96.5%
viability, T/C (second compound 0.00949 µM, first compound 0.1 µM): 105%
viability, T/C (second compound 0.00949 µM, first compound 0.316 µM): 99.9%
viability, T/C (second compound 0.00949 µM, first compound 1 µM): 88.7%
viability, T/C (second compound 0.00949 µM, first compound 3.16 µM): 94.7%
viability, T/C (second compound 0.00949 µM, first compound 10 µM): 96.5%
viability, T/C (second compound 0.03 µM, first compound 0.0316 µM): 91.8%
viability, T/C (second compound 0.03 µM, first compound 0.1 µM): 96.1%
viability, T/C (second compound 0.03 µM, first compound 0.316 µM): 98.4%
viability, T/C (second compound 0.03 µM, first compound 1 µM): 93%
viability, T/C (second compound 0.03 µM, first compound 3.16 µM): 97.5%
viability, T/C (second compound 0.03 µM, first compound 10 µM): 112%
viability, T/C (second compound 0.0949 µM, first compound 0.0316 µM): 102%
viability, T/C (second compound 0.0949 µM, first compound 0.1 µM): 101%
viability, T/C (second compound 0.0949 µM, first compound 0.316 µM): 108%
viability, T/C (second compound 0.0949 µM, first compound 1 µM): 98.5%
viability, T/C (second compound 0.0949 µM, first compound 3.16 µM): 97%
viability, T/C (second compound 0.0949 µM, first compound 10 µM): 98.6%
viability, T/C (second compound 0.3 µM, first compound 0.0316 µM): 95.6%
viability, T/C (second compound 0.3 µM, first compound 0.1 µM): 87.7%
viability, T/C (second compound 0.3 µM, first compound 0.316 µM): 86.1%
viability, T/C (second compound 0.3 µM, first compound 1 µM): 87.9%
viability, T/C (second compound 0.3 µM, first compound 3.16 µM): 79.9%
viability, T/C (second compound 0.3 µM, first compound 10 µM): 86.9%
